Data set [1] in a line: Metabolic stability evaluation in human liver microsome. The data set is classed as in vitro ADME. The settings on record: liver microsomes, pH 7.4; human liver microsome 0.2 mg/mL protein, test compound 1 μmol/L, β-NADPH, 37° C., 30 min; average of two samples; read-out: hCLint (converted). On the procedure: Human liver microsome (pool of 50 donors) was purchased from XenoTech. A reaction mixture containing phosphate buffer (100 mmol/L, pH 7.4), ethylenediamine tetraacetic acid (0.1 mmol/L), magnesium chloride (6 mmol/L), human liver microsome (0.2 mg/mL protein) and test compound (1 μmol/L) was prepared. The reaction mixture was preincubated at 37° C. for 5 min, β-NADPH (1 mmol/L) was added and the mixture was incubated at 37° C. for 30 min. The protein was removed with acetonitrile from the sample after the reaction and the sample was measured by LC-MS/MS. The ratio of the organic solvent in the reaction mixture was set to about 0.5%, and the reaction was performed in 2 samples.
The elimination rate constant (ke) was calculated from the linear regression of the logarithm plot of the residual ratio of the test compound and at 30 min after the reaction, and the liver inherent clearance (Cint) was calculated by the following formula.
[formula] ke: elimination rate constant (1/h) a: concentration (mg/mL) of liver microsome in the reaction mixture b: liver microsome amount per liver unit weight (32.3 mg/g liver) c: liver weight per unit body weight (25.7 g liver/kg body weight) Each test compound was tested in two samples, and the average thereof was calculated.
On the technique in general: Liver microsomes are vesicles of endoplasmic reticulum, rich in cytochrome P450 enzymes.

Data set [2] has as its target T1, GAL4-PPAR γ chimeric nuclear receptor (human PPAR γ ligand binding domain) (Homo sapiens, UniProt P37231).
T1 construct: expressed in transfected cells; host or cells: HEK293EBNA cells, transient transfection with SuperFect
T1 sequence (P37231 174-475 isoform P37231-2): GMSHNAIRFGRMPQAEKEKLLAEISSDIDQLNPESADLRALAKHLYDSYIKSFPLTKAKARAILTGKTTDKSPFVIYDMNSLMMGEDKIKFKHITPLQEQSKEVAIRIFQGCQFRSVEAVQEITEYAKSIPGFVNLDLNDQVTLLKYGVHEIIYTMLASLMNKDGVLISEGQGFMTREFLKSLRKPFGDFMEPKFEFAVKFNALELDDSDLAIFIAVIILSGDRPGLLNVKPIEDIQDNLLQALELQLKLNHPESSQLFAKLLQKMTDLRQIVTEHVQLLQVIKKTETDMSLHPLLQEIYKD
The experiment in a line: PPAR γ transactivation assay by transient gene transfer (GAL4-PPAR γ chimeric receptor, luciferase reporter, HEK293EBNA cells). The format is cell-based. The note with it: concentration showing 50% of efficacy (maximum activity rate relative to pioglitazone = 100%), 24 hr. As for the experimental part:
The agonist activity of the test compound to PPAR γ was determined by a transactivation assay method using a chimeric nuclear receptor of a DNA binding region of a yeast transcription factor GAL4 and a PPAR γ ligand binding region. Specifically, the PPAR γ agonist activity of the test compound was evaluated by the following method based on the method of Lehmann et al. (J Biol. Chem., 1995, vol. 270, page 12953).
HEK293EBNA cells cultured in Dulbecco's Modified Eagle medium (Invitrogen) containing 10 v/v % fetal bovine serum (Invitrogen) were used. 30 mL of the above-mentioned cells (density: 1×10^5 cells/mL) were inoculated in a […] (Iwaki Glass), and cultured overnight. Using SuperFect Transfection Reagent (QIAGEN), a plasmid expressing a GAL4-PPAR γ chimeric nuclear receptor fusing 174-475 amino acids, which are human PPAR γ ligand binding domain, and 1-147 amino acids, which are GAL4 DNA binding domain, and a reporter plasmid expressing a GAL4 responsive luciferase were transiently introduced into the cells at a proportion of 4:1. After 5 hr from transfection, the cells were detached from the culture dish, and the detached cells (density: 2×10^4 cells/mL) were inoculated by 100 μL in each well of a 96 well white plate (SUMITOMO BAKELITE), and cultured overnight. The medium was removed, the test compound diluted in various concentrations with serum-free Dulbecco's Modified Eagle medium was added by 100 μL, and the mixture was reacted under a 5% carbon dioxide gas stream (5% CO2) at 37° C. for 24 hr. On the other hand, as a positive control, 10 μmol/L of pioglitazone (100 μL) was added, and the mixture was reacted under a 5% carbon dioxide gas stream (5% CO2) at 37° C. for 24 hr. As a substrate of luciferase, 100 μL of Steady-Glo (Promega) was added to each well and the mixture was thoroughly stirred. Immediately thereafter, the chemical luminescence due to luciferase was measured using TopCount NTX (Packard).
The agonist activity (activity rate (%)) of the test compound to PPAR γ was calculated according to the following formula, as a relative activity when the agonist activity on addition of pioglitazone ([…]) was 100%.
A general note: In a reporter assay the amount or activity of a reporter protein is the signal.

By EC50 is commonly meant the concentration at which the effect is half-maximal. As to `O=c1[nH]c(/C(F)=C2\c3ccc(Cc4c(C5CC5)nc5c(Cl)cccn45)cc3COc3cc(F)ccc32)no1` [Compound 8n, (Z)-3-({8-[(8-chloro-2-cyclopropylimidazo[1,2-a]pyridin-3-yl)methyl]-3-fluorodibenzo[b,e]oxepin-11(6H)-ylidene}fluoromethyl)-1,2,4-oxadiazol-5(4H)-one], the CLint scaled at 1 μmol/L in data set [1] was 18.3 mL/min/kg. In data set [2], this compound had a concentration for a half-maximal effect (EC50) of 54.5 nM.

As for `[2H]C([2H])([2H])Oc1cccn2c(Cc3ccc4c(c3)COc3cc(F)ccc3/C4=C(\C)c3noc(=O)[nH]3)c(C3CC3)nc12` [Compound 9h, (E)-3-[1-(8-{[2-cyclopropyl-8-(methoxy-d3)-imidazo[1,2-a]pyridin-3-yl]methyl}-3-fluorodibenzo[b,e]oxepin-11(6H)-ylidene)ethyl]-1,2,4-oxadiazol-5(4H)-one], the CLint scaled at 1 μmol/L in data set [1] was 25 mL/min/kg. Also, in data set [2], it took 11.9 nM to reach a half-maximal effect (EC50).

With `C/C(=C1/c2ccc(Cc3c(C4CC4)nc4c(F)cccn34)cc2COc2cc(F)ccc21)c1noc(=O)[nH]1` [Compound 9i, (E)-3-(1-{8-[(2-cyclopropyl-8-fluoroimidazo[1,2-a]pyridin-3-yl)methyl]-3-fluorodibenzo[b,e]oxepin-11(6H)-ylidene}ethyl)-1,2,4-oxadiazol-5(4H)-one], in data set [1], the CLint scaled at 1 μmol/L is 71.7 mL/min/kg. The EC50 in data set [2] worked out at 13.9 nM.

On to `C/C(=C1/c2ccc(Cc3c(C4CC4)nc4cc(Cl)ccn34)cc2COc2cc(F)ccc21)c1noc(=O)[nH]1` [Compound 10a, (E)-3-(1-{8-[(7-chloro-2-cyclopropylimidazo[1,2-a]pyridin-3-yl)methyl]-3-fluorodibenzo[b,e]oxepin-11(6H)-ylidene}ethyl)-1,2,4-oxadiazol-5(4H)-one], for which the CLint scaled at 1 μmol/L in data set [1] was 102 mL/min/kg. In addition, the half-maximal effective concentration (EC50) in data set [2] is 6.4 nM.

As to `C/C(=C1/c2ccc(Cc3c(C4CC4)nc4cc(F)ccn34)cc2COc2cc(F)ccc21)c1noc(=O)[nH]1` [Compound 10c, (E)-3-(1-{8-[(2-cyclopropyl-7-fluoroimidazo[1,2-a]pyridin-3-yl)methyl]-3-fluorodibenzo[b,e]oxepin-11(6H)-ylidene}ethyl)-1,2,4-oxadiazol-5(4H)-one], the CLint scaled at 1 μmol/L in data set [1] is 65 mL/min/kg. The compound further registered an EC50 in data set [2] of 12.7 nM.

On to `COCc1nc2cc(Cl)ccn2c1Cc1ccc2c(c1)COc1cc(F)ccc1/C2=C(\C)c1noc(=O)[nH]1` [Compound 10e, (E)-3-{1-(8-{[7-chloro-2-(methoxymethyl)imidazo[1,2-a]pyridin-3-yl]methyl}-3-fluorodibenzo[b,e]oxepin-11(6H)-ylidene)ethyl}-1,2,4-oxadiazol-5(4H)-one], for which the CLint scaled at 1 μmol/L in data set [1] was 40 mL/min/kg. A half-maximal effect in data set [2] (EC50) was put at 5.3 nM.

For the compound `C/C(=C1/c2ccc(Cc3c(C)nc4cc(C(F)(F)F)ccn34)cc2COc2cc(F)ccc21)c1noc(=O)[nH]1` [Compound 11b, (E)-3-[1-(3-fluoro-8-{[2-methyl-7-(trifluoromethyl)imidazo[1,2-a]pyridin-3-yl]methyl}dibenzo[b,e]oxepin-11(6H)-ylidene)ethyl]-1,2,4-oxadiazol-5(4H)-one], the CLint scaled at 1 μmol/L in data set [1] was 35 mL/min/kg. In data set [2], this compound showed an EC50 of 13.9 nM.

Consider `C/C(=C1/c2ccc(Cc3c(C4CC4)nc4nc(C(F)(F)F)ccn34)cc2COc2cc(F)ccc21)c1noc(=O)[nH]1` [Compound 11h, (E)-3-[1-(8-{[2-cyclopropyl-7-(trifluoromethyl)imidazo[1,2-a]pyrimidin-3-yl]methyl}-3-fluorodibenzo[b,e]oxepin-11(6H)-ylidene)ethyl]-1,2,4-oxadiazol-5(4H)-one], for which the CLint scaled at 1 μmol/L in data set [1] was 90 mL/min/kg. A half-maximal effect in data set [2] (EC50) was put at 19 nM.

As to `O=c1[nH]c(/C(=C2\c3ccc(Cc4c(C5CC5)nc5c(Cl)cccn45)cc3COc3cc(F)ccc32)C2CC2)no1` [Compound 12a, (E)-3-({8-[(8-chloro-2-cyclopropylimidazo[1,2-a]pyridin-3-yl)methyl]-3-fluorodibenzo[b,e]oxepin-11(6H)-ylidene}(cyclopropyl)methyl)-1,2,4-oxadiazol-5(4H)-one], in data set [1], the CLint scaled at 1 μmol/L was 78.3 mL/min/kg. This compound also came in with an EC50 in data set [2] of 18.8 nM.

`O=c1[nH]c(/C(=C2\c3ccc(Cc4c(C5CC5)nc5ccccn45)cc3COc3cc(F)ccc32)C2CC2)no1` [Compound 12c]: the CLint scaled at 1 μmol/L in data set [1] was 65 mL/min/kg. The compound also showed a 50% effective concentration (EC50) in data set [2] of 78.2 nM.

In the case of `C/C(=C1/c2ccc(Cn3c(C(C)C)nc(Cl)c3Cl)cc2COc2cc(F)ccc21)c1noc(=O)[nH]1` [Compound 13c, (E)-3-(1-{8-[(4,5-dichloro-2-isopropyl-1H-imidazol-1-yl)methyl]-3-fluorodibenzo[b,e]oxepin-11(6H)-ylidene}ethyl)-1,2,4-oxadiazol-5(4H)-one], the CLint scaled at 1 μmol/L in data set [1] was 88.3 mL/min/kg. A half-maximal response in data set [2] (EC50) required 39.9 nM.

For the compound `COCc1nc2cscc2n1Cc1ccc2c(c1)COc1cc(F)ccc1/C2=C(\C)c1noc(=O)[nH]1` [Compound 13d, (E)-3-[1-(3-fluoro-8-{[2-(methoxymethyl)-1H-thieno[3,4-d]imidazol-1-yl]methyl}dibenzo[b,e]oxepin-11(6H)-ylidene)ethyl]-1,2,4-oxadiazol-5(4H)-one], in data set [1], the CLint scaled at 1 μmol/L is 26.7 mL/min/kg. Also, in data set [2], the EC50 turned out to be 36.7 nM.

`CCCc1nc(C)nc(N2CCC2)c1Cc1ccc2c(c1)COc1cc(F)ccc1/C2=C(\C)c1noc(=O)[nH]1` [Compound 13g, (E)-3-[1-(8-{[4-(azetidin-1-yl)-2-methyl-6-propylpyrimidin-5-yl]methyl}-3-fluorodibenzo[b,e]oxepin-11(6H)-ylidene)ethyl]-1,2,4-oxadiazol-5(4H)-one]: the CLint scaled at 1 μmol/L in data set [1] is 65 mL/min/kg. Further, a half-maximal effect in data set [2] (EC50) was put at 209 nM.

As for `C/C(=C1/c2ccc(Cc3c(C4CC4)nc4c(C)nccn34)cc2COc2cc(F)ccc21)c1noc(=O)[nH]1` [Compound 14a, (E)-3-(1-{8-[(2-cyclopropyl-8-methylimidazo[1,2-a]pyrazin-3-yl)methyl]-3-fluorodibenzo[b,e]oxepin-11(6H)-ylidene}ethyl)-1,2,4-oxadiazol-5(4H)-one], the CLint scaled at 1 μmol/L in data set [1] is 30 mL/min/kg. The compound further yielded an EC50 in data set [2] of 15.9 nM.

In the case of `CCCc1nc2c(C)nccn2c1Cc1ccc2c(c1)COc1cc(F)ccc1/C2=C(\C)c1noc(=O)[nH]1` [Compound 14d, (E)-3-(1-{3-fluoro-8-[(8-methyl-2-propylimidazo[1,2-a]pyrazin-3-yl)methyl]dibenzo[b,e]oxepin-11(6H)-ylidene}ethyl)-1,2,4-oxadiazol-5(4H)-one], the CLint scaled at 1 μmol/L in data set [1] was 61.7 mL/min/kg. The compound further had a concentration for a half-maximal effect (EC50) in data set [2] of 7.4 nM.

`C/C(=C1/c2ccc(Cc3c(C)nc4cc(C5CC5)ccn34)cc2COc2cc(F)ccc21)c1noc(=O)[nH]1` [Compound 14g, (E)-3-(1-{8-[(7-cyclopropyl-2-methylimidazo[1,2-a]pyridin-3-yl)methyl]-3-fluorodibenzo[b,e]oxepin-11(6H)-ylidene}ethyl)-1,2,4-oxadiazol-5(4H)-one]: in data set [1], the CLint scaled at 1 μmol/L was 28.3 mL/min/kg. This compound yielded an EC50 in data set [2] of 130 nM.

Regarding `C#Cc1ccn2c(Cc3ccc4c(c3)COc3cc(F)ccc3/C4=C(\C)c3noc(=O)[nH]3)c(C)nc2c1` [Compound 14h, (E)-3-(1-{8-[(7-ethynyl-2-methylimidazo[1,2-a]pyridin-3-yl)methyl]-3-fluorodibenzo[b,e]oxepin-11(6H)-ylidene}ethyl)-1,2,4-oxadiazol-5(4H)-one], in data set [1], the CLint scaled at 1 μmol/L is 36.7 mL/min/kg. Further, in data set [2], the EC50 is 304 nM.

(Values after patent US8969345B2, “Dibenzooxepin derivative” (Kyowa Hakko Kirin Co., Ltd., priority 2011, dated 2015).)
